Tests used:
[1] = target: Serine/threonine-protein kinase Chk2 (Homo sapiens) (UniProt O96017); assay: Inhibition of CHEK2 (unknown origin) assessed as residual activity at 1000 nM by KINOMEscan analysis relative to control
[2] = target: Macrophage colony-stimulating factor 1 receptor (Homo sapiens) (UniProt P07333); assay: Inhibition of autoinhibited CSF1R (unknown origin) assessed as residual activity at 1000 nM by KINOMEscan analysis relative to control
[3] = target: T1, Serine/threonine-protein kinase DCLK3 (Homo sapiens) (UniProt Q9C098); assay: Inhibition of DCAMKL3 (unknown origin) assessed as residual activity at 1000 nM by KINOMEscan analysis relative to control
T1 sequence (whole entry): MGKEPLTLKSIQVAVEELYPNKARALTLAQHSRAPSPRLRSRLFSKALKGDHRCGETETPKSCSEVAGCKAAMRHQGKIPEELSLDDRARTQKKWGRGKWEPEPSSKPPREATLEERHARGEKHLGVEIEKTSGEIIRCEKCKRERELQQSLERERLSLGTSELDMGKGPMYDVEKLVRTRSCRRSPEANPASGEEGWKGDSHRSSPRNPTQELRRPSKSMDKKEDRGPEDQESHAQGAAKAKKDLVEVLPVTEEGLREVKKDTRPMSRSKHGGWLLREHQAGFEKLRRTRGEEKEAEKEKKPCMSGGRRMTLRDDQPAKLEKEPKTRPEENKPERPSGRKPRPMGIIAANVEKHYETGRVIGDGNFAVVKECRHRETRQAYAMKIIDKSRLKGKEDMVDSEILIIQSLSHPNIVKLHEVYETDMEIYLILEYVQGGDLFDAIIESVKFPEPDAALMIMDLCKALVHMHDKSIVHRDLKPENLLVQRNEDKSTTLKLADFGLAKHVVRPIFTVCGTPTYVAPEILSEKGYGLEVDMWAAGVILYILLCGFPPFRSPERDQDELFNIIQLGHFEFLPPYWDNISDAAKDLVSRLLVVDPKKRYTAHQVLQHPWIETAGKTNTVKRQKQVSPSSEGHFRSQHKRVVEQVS

[4] = target: Fibroblast growth factor receptor 2 (Homo sapiens) (UniProt P21802); assay: Inhibition of FGFR2 (unknown origin) assessed as residual activity at 1000 nM by KINOMEscan analysis relative to control
[5] = test system: Receptor-type tyrosine-protein kinase FLT3 (Homo sapiens), P36888 [D835H]; assay: Inhibition of FLT3 D835H mutant (unknown origin) assessed as residual activity at 1000 nM by KINOMEscan analysis relative to control
[6] = target: T2, Dual specificity mitogen-activated protein kinase kinase 5 (Homo sapiens) (UniProt Q13163); assay: Inhibition of MEK5 (unknown origin) assessed as residual activity at 1000 nM by KINOMEscan analysis relative to control
T2 sequence (whole entry): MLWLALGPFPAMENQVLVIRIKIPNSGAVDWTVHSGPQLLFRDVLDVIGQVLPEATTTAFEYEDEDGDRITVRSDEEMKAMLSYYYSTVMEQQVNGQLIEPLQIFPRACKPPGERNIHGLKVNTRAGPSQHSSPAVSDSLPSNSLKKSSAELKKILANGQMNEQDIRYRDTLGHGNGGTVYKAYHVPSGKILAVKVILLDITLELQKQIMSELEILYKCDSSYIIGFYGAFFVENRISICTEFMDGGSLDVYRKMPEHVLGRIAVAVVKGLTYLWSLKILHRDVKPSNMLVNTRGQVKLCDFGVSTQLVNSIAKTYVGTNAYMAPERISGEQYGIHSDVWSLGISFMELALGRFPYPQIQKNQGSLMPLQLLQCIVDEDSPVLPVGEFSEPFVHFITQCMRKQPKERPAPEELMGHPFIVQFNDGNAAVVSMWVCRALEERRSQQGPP

[7] = target: Serine/threonine-protein kinase mTOR (Homo sapiens) (UniProt P42345); assay: Inhibition of MTOR (unknown origin) assessed as residual activity at 1000 nM by KINOMEscan analysis relative to control
[8] = target: T3, Mitogen-activated protein kinase 13 (Homo sapiens) (UniProt O15264); assay: Inhibition of p38-delta (unknown origin) assessed as residual activity at 1000 nM by KINOMEscan analysis relative to control
T3 sequence (whole entry): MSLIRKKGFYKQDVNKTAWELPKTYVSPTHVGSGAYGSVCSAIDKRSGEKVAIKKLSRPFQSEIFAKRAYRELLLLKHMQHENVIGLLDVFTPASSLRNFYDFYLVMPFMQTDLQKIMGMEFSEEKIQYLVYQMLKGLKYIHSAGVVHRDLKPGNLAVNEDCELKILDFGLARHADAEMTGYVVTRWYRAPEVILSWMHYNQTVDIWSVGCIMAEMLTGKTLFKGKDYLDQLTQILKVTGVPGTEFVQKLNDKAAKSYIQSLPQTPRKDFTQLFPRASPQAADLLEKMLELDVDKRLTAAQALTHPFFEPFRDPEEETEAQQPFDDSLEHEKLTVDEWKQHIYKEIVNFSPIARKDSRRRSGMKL

[9] = target: Cyclin-dependent kinase 15 (Homo sapiens) (UniProt Q96Q40); assay: Inhibition of PFTAIRE2 (unknown origin) assessed as residual activity at 1000 nM by KINOMEscan analysis relative to control
[10] = target: Proto-oncogene tyrosine-protein kinase ROS (Homo sapiens) (UniProt P08922); assay: Inhibition of ROS1 (unknown origin) assessed as residual activity at 1000 nM by KINOMEscan analysis relative to control
[11] = target: Dual specificity testis-specific protein kinase 1 (Homo sapiens) (UniProt Q15569); assay: Inhibition of TESK1 (unknown origin) assessed as residual activity at 1000 nM by KINOMEscan analysis relative to control
Dual specificity testis-specific protein kinase 1 (Homo sapiens), sequence (Q15569 whole entry, looked up): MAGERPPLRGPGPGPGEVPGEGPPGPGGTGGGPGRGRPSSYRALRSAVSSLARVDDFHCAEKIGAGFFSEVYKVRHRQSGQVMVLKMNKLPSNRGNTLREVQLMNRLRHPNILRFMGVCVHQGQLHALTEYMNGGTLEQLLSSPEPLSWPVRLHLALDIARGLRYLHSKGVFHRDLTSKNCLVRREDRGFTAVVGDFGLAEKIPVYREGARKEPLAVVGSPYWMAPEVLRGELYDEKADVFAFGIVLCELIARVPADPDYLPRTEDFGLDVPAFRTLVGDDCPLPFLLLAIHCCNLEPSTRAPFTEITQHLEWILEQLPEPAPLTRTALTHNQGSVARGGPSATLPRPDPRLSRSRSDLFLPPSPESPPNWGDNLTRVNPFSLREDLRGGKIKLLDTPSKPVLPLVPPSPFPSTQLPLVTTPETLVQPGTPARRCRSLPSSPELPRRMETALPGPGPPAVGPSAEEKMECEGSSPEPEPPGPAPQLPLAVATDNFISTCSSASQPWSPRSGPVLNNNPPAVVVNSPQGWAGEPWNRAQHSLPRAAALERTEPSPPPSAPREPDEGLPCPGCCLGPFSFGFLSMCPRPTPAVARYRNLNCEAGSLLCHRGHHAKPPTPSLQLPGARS

Cyclin-dependent kinase 15 (Homo sapiens), sequence (Q96Q40 whole entry): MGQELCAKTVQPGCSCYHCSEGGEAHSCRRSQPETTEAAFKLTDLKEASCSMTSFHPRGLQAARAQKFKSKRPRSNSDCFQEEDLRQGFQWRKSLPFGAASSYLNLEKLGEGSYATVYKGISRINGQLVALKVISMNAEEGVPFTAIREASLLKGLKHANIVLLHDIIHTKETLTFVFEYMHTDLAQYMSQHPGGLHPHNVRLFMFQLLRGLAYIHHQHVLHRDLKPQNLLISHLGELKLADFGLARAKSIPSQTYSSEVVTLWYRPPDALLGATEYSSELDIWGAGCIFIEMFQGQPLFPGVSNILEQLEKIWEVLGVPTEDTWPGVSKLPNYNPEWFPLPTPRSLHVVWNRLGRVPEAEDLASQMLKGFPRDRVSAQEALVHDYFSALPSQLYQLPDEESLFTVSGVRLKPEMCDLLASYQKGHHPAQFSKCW
Fibroblast growth factor receptor 2 (Homo sapiens), sequence (P21802 22-821 limits assumed): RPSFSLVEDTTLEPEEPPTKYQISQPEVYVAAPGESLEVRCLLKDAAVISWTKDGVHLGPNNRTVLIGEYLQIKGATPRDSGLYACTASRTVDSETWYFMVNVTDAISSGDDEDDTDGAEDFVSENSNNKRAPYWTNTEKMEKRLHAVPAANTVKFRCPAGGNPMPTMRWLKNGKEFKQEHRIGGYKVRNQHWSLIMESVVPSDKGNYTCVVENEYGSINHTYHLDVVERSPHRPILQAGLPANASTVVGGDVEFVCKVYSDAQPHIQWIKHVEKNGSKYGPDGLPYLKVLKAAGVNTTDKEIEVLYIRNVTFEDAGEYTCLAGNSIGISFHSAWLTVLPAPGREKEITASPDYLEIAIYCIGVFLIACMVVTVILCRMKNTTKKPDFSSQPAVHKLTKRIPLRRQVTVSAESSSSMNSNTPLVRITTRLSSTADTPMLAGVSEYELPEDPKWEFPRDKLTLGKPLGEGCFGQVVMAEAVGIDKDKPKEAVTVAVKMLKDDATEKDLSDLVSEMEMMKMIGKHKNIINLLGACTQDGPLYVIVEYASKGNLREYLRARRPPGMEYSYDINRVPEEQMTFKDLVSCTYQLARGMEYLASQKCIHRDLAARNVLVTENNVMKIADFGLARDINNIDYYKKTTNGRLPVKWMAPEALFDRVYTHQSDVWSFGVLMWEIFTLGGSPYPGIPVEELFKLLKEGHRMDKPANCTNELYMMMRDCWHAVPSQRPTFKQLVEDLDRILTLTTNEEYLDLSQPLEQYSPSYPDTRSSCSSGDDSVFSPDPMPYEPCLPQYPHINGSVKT
Serine/threonine-protein kinase Chk2 (Homo sapiens), sequence (O96017 whole entry): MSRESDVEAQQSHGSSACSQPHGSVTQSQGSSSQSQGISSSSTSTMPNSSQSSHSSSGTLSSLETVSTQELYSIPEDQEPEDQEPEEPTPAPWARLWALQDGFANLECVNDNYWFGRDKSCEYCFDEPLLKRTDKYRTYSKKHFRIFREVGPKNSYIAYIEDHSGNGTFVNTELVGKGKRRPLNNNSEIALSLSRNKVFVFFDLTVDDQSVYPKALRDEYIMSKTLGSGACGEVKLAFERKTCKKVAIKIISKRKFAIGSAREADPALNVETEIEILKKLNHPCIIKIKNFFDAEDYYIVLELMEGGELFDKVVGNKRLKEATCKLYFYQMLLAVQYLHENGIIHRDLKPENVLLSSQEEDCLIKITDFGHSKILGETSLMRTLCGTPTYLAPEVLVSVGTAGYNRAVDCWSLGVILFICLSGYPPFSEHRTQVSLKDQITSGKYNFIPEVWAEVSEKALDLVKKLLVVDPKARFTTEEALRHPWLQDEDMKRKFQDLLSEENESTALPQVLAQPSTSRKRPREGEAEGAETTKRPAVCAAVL
Macrophage colony-stimulating factor 1 receptor (Homo sapiens), sequence (P07333 whole entry): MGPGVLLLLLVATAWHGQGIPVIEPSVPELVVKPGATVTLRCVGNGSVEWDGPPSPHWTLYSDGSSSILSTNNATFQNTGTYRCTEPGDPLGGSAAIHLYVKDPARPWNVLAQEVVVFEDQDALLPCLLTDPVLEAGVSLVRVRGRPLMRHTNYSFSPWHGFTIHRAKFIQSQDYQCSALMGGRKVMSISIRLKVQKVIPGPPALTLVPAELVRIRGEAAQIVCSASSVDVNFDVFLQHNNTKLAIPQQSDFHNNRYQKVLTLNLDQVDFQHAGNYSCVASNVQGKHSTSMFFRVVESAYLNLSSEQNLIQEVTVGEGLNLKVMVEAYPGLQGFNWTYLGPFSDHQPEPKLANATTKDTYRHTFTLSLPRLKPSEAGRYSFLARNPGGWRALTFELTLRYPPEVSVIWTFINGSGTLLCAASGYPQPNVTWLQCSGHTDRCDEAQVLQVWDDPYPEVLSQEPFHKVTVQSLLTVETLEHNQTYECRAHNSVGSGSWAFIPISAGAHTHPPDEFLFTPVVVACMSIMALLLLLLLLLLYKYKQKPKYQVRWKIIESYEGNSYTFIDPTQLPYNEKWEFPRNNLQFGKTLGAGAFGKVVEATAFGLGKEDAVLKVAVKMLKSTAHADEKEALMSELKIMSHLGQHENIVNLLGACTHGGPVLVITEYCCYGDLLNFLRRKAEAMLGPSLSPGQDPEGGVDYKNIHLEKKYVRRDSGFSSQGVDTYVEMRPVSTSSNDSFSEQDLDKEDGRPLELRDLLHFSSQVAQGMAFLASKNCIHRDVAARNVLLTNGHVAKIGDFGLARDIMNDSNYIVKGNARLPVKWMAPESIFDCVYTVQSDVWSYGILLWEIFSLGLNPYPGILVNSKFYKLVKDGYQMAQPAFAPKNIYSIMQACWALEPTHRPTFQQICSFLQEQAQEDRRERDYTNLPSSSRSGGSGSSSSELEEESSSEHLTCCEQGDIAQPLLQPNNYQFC

Structure (SMILES)	Activity [1] [%]	Activity [2] [%]	Activity [3] [%]	Activity [4] [%]	Activity [5] [%]	Activity [6] [%]	Activity [7] [%]	Activity [8] [%]	Activity [9] [%]	Activity [10] [%]	Activity [11] [%]
COc1cc2nc(C)nc(N[C@H](C)c3cccc(-c4cn[nH]c4)c3)c2cc1OC	89	97	73	67	100	61	62	90	94	100	100
COc1cc2ncnc(N[C@H](C)c3cccc4ccccc34)c2cc1OC	73	93	100	100	96	89	95	100	100	90	96
